Measurements published in PMC6268831 (Molecules, 2012).

Assays:
rat thymocytes [1] = assay: Mitochondrial membrane potential of rat thymocytes (Rhodamine 123 uptake); format: cell-based; details: 24 h, ratio of mean fluorescence intensity to control, mean ± SD
Method: Experiments were performed on adult male Wistar rats (150−180 g), 8−10 weeks old, bred at the Vivarium of the Institute of Biomedical Research, Medical Faculty, Nis, Serbia, under conventional laboratory conditions and in accordance with national animal protection guidelines. Rat thymocytes were isolated as described previously. The viability of the isolated cells, as determined by trypan blue dye exclusion test, was always over 95%. Isolated thymocytes were counted and adjusted to a density of 5 × 10^6 cells/mL of CM. […] Control samples were cultured in CM, with appropriate amounts of 96% ethanol (9.6%). Concentrations of tested substances used in our study were adopted from our previous report, regarding the effect of different compounds on thymocytes toxicity. All cell cultures were done in triplicates and cultivated for 24 h in an incubator (Galaxy, Wolf Laboratories, Pocklington, UK) with 5% CO2 at 37 °C. […] The fluorescence of intracellular Rhodamine 123 (excitation 485 nm; emission 530 nm) was measured by Perkin-Elmer fluorimeter, as published earlier. For each sample, basal fluorescence intensity values were subtracted from those obtained after different treatments and results were presented as ratio of mean fluorescence intensity (MFI).

rat thymocytes [2] = assay: Intracellular ROS production in rat thymocytes (H2DCF-DA probe); format: cell-based; details: 24 h, ratio of mean fluorescence intensity to control, mean ± SD
Method: (§1) Experiments were performed on adult male Wistar rats (150−180 g), 8−10 weeks old, bred at the Vivarium of the Institute of Biomedical Research, Medical Faculty, Nis, Serbia, under conventional laboratory conditions and in accordance with national animal protection guidelines.
(§2) Rat thymocytes were isolated as described previously. The viability of the isolated cells, as determined by trypan blue dye exclusion test, was always over 95%. Isolated thymocytes were counted and adjusted to a density of 5 × 10^6 cells/mL of CM.
(§3) Isolated thymocytes were cultivated in 96-well round-bottom plates (NUNC, Aarhus, Denmark), containing a 100 µL of cell suspension (5 × 10^5 cells) in each well. […] Control samples were cultured in CM, with appropriate amounts of 96% ethanol (9.6%). Concentrations of tested substances used in our study were adopted from our previous report, regarding the effect of different compounds on thymocytes toxicity. All cell cultures were done in triplicates and cultivated for 24 h in an incubator (Galaxy, Wolf Laboratories, Pocklington, UK) with 5% CO2 at 37 °C.
A redox-sensitive probe (H2DCF-DA) was used to determine changes in overall cellular ROS levels, as described previously. The change in fluorescence (excitation 485 nm; emission 530 nm) was measured using a Perkin-Elmer fluorimeter (Wallac Victor^2V). For each sample, basal fluorescence intensity values were subtracted from those obtained after different treatments and results were presented as ratio of mean fluorescence intensity (MFI).

[3] = test system: human acute monocytic leukemia cell line (THP-1); details: tested as essential oil, lower concentrations than in this study, trypan blue viability assay; cited from earlier work
rat thymocytes [4] = assay: Cell viability of rat thymocytes by CCK-8 assay; format: cell-based; details: 24 h, absorbance ratio to control cells, mean ± SD
Method: as §1, §2, §3
Cell viability of rat thymocytes, after cultivation period, was evaluated by CCK-8 assay as was previously described. Ten µL of reaction mixture was added in each well. After 2 h of incubation, the solubilized formazan product was quantified spectrophotometrically, by using a microplate reader Perkin-Elmer (Wallac Victor^2V, Turku, Finland). Absorbance was measured at 450 nm. For each sample, basal intensity values were subtracted from those obtained after different treatments. Absorbances were presented as ratio for comparison with control samples.

Row | SMILES | Mitochondrial membrane potential (rat thymocytes [1]; 0.5 µg/mL) | Mitochondrial membrane potential (rat thymocytes [1]; 5 µg/mL) | Mitochondrial membrane potential (rat thymocytes [1]; 50 µg/mL) | Intracellular ROS production (rat thymocytes [2]; 0.5 µg/mL) | Intracellular ROS production (rat thymocytes [2]; 5 µg/mL) | Intracellular ROS production (rat thymocytes [2]; 50 µg/mL) | Toxic effect on THP-1 cells [3] | Cytotoxicity (CCK-8 assay) (rat thymocytes [4]; 0.5 µg/mL) | Cytotoxicity (CCK-8 assay) (rat thymocytes [4]; 5 µg/mL) | Cytotoxicity (CCK-8 assay) (rat thymocytes [4]; 50 µg/mL)
1 | CC12CCC(CC1=O)C2(C)C (stereo not shown) [Camphor, 4,7,7-trimethylbicyclo[2.2.1]heptan-3-one] | 0.740 ± 0.071 | 0.919 ± 0.047 | 0.925 ± 0.132 | 1.413 ± 0.068 | 1.399 ± 0.093 | 1.251 ± 0.049 | no significant toxic effect | 0.927 ± 0.132 | 1.024 ± 0.083 | 1.111 ± 0.033
2 | CC1(C)C2CCC1(C)C(O)C2 (stereo not shown) [Borneol, 4,7,7-trimethylbicyclo[2.2.1]heptan-3-ol] | 0.799 ± 0.022 | 0.856 ± 0.084 | 0.876 ± 0.110 | 1.268 ± 0.102 | 1.224 ± 0.108 | 1.164 ± 0.191 |  | 1.067 ± 0.004 | 1.070 ± 0.015 | 0.975 ± 0.144
